Among the data in patent US5128465A, “Process for the preparation of cephem derivatives and intermediates therefor” (Eisai Co., Ltd., priority 1988, dated 1992) are MIC values, retold here.

The structures appear in SMILES notation. Values after ≈ are worked out from the molar mass of the structure shown.

Assay in all cases: Antibacterial activities, MIC
What all share (type): cell-based

Test [1] concerns Pseudomonas aeruginosa EP-01. As to conditions: EP01.
The subject of the next test is Escherichia coli NIHJ.
The subject of another test is Morganella morgani EP-14. The settings on record: EP14.
In test [2] the test system is Serratia marcescens ES-75. As to conditions: ES75.
In test [3] the test system is Staphylococcus aureus 209-P.
Test [4] relates to Klebsiella pneumoniae EK-6. The settings on record: EK6.

As a reminder, the MIC is the lowest concentration found to suppress growth. A high value points to weaker potency. In the case of `C[N+](C)(C/C=C/C1=C(C(=O)[O-])N2C(=O)[C@@H](NC(=O)/C(=N\OCF)c3nsc(N)n3)[C@H]2SC1)[C@H](CO)C(N)=O` [Example 10, 7β-[2-(5-Amino-1,2,4-Thiadiazol-3-yl)-(Z)-2-fluoromethoxyiminoacetamido]-3-[(E)-3-[((R)-1-Carbamoyl-2-Hydroxyethyl)Dimethylammonio]-1-propenyl]-3-Cephem-4-Carboxylate], the MIC in test [1] was 0.8 µg/mL (≈ 1.4 µM); against Escherichia coli NIHJ, at most 0.025 µg/mL; against Morganella morgani EP-14, at most 0.025 µg/mL; in test [2], at most 0.025 µg/mL; in test [3] it was 0.2 µg/mL (≈ 0.349 µM); in test [4] it was at most 0.025 µg/mL.
In the case of `CC[N+](C)(C/C=C/C1=C(C(=O)[O-])N2C(=O)[C@@H](NC(=O)/C(=N\OCF)c3nsc(N)n3)[C@H]2SC1)CC(N)=O` (stereo partly drawn) [Example 14, 7β-[2-(5-Amino-1,2,4-Thiadiazol-3-yl)-(Z)-2-Fluoromethoxyiminoacetamido]-3-[(E)-3-(Carbamoylmethylethylmethylammonio)-1-Propenyl]-3-Cephem-4-Carboxylate], the minimum inhibitory concentration (MIC) was 0.8 µg/mL (≈ 1.44 µM) in test [1]; at most 0.025 µg/mL in the test with Escherichia coli NIHJ; at most 0.025 µg/mL against Morganella morgani EP-14; 0.1 µg/mL (≈ 0.18 µM) in test [2]; 0.2 µg/mL (≈ 0.359 µM) in test [3]; at most 0.025 µg/mL in test [4].
With `C[C@H](C(N)=O)[N+](C)(C)C/C=C/C1=C(C(=O)[O-])N2C(=O)[C@@H](NC(=O)/C(=N\OCF)c3nsc(N)n3)[C@H]2SC1` [Example 18, 7β-[2-(5-Amino-1,2,4-Thiadiazol-3-yl)-(Z)-2-Fluoromethyoxyiminoacetamido]-3-[(E)-3-[((R)-1Carbamoylethyl)dimethylammonio]-1-propenyl]-3-Cephem-4-Carboxylate], the MIC in test [1] was 1.56 µg/mL (≈ 2.8 µM); in the test with Escherichia coli NIHJ it was at most 0.025 µg/mL; in the test with Morganella morgani EP-14, at most 0.025 µg/mL; in test [2], 0.1 µg/mL (≈ 0.18 µM); in test [3], 0.2 µg/mL (≈ 0.359 µM); in test [4], at most 0.025 µg/mL.
